According to US20220133618A1, “Low Surfactant Personal Care Compositions” (The Procter & Gamble Company, priority 2020, published 2022):

Experiments:
[1] = Syringe filter polymer cleaning procedure (syringe method); conditions: Table 4; controls; Decyl Glucoside 2% starting active before dilution
Procedure: Procedure for Syringe Filter Polymer Cleaning
1) materials used in syringe cleaning procedure: • A. 0.15% Oil Red 0 dyed >95% pure Glyceryl Trioleate oil (See below—Procedure for preparing 0.15% Oil Red 0 dyed Triolein oil (Glyceryl trioleate)) • B. Syringe Filters: 30 mm, 5 um Nylon syringe filters; (Thermo Fischer Scientific Co, Waltham, Mass.: Part #F2500-50) • C. 24 ml Norm-ject luer (slip tip) syringes Ref #4200-00V0 (These are silicone free syringes) • D. Isopropanol (IPA) • E. Polymer Solutions/mixtures—diluted with distilled water to the desired percentage (typically 0.5% for a polymer only solution and 10% for a full formulation unless otherwise noted in the examples). • F. Plastic drain tubing having a diameter to fit over the slip tip of the syringe filter tightly
Syringe Pump Settings • Syringe Diameter: 20 mm (Note: The volume of liquid dispensed by the syringe is based on the diameter of the syringe and diameter setting must be changed if using different sizes of syringes). • Dispensing Volume set point: 5 mls • Cleaning Dispensing Rate: 5 mls/min • IPA Extraction Rate: 2.5 ml/min
• 1. Coat the slip tip side of the syringe filter (see FIG. 5) using a micro pipettor with 48-50 mg of Oil 0 Red dyed Triolein oil by setting the micro-pipettor to a volume of ˜58 ul to compensate for the lower density of the dyed oil. • 2. Slowly fill the pipette tip with oil. […]

[2] = system: keratinocytes on de-epidermized dermis (DED); test: TEWL (transepidermal water loss) on organotypic epidermis cultures; assay type: cell-based, human; conditions: topical treatment 20 minutes, washed, reading after 24 hours; higher value = worse
Description: TEWL (transepidermal water loss) is a common clinical measure used to compare the mildness of surfactant-based formulations for skin (Rogiers 2001; Berardesca and Maibach 1990; Brink et al. 2019; O'Connor, Ogle, and Odio 2016; Thune et al. 1988). TEWL is considered to provide a relative understanding of individual skin barrier quality in relation to onset of disease, environmental impacts and exposure to topical formulations, such as consumer products (Alexander et al. 2018). […]
De-epithelialized dermis (DED) was prepared by removing fat from the skin sample with a scalpel, cutting the skin into squares measuring 1.25 cm^2, and placing the samples in 1M NaCl plus 10× penicillin/streptomycin. […] The following day, the epidermis was carefully peeled off with forceps and dermal tissue was stored in phosphate-buffered saline (PBS) plus 2× penicillin/streptomycin at 4° C. until ready for use. […]
At day 7 at the air-liquid interface, the cultures were treated topically with full or diluted formulas by cotton swab or by pipetting 6-50 ul, depending on product viscosity. […] Once equilibrated the cultures were placed on the lid of a sterile 150 mm petri dish and TEWL readings were taken using a Delfin Vapometer containing a silicone O-ring adaptor provided by the manufacturer. […]

SMILES | % Sebum Removed with Syringe Method [1] [%] | TEWL Mean [2]
CCCCCCCCCCO[C@@H]1O[C@H](CO)[C@@H](O)[C@H](O)[C@H]1O [Sample C3, Decyl Glucoside] | 51 | –
CCCCCCCCCCCCOS(=O)(=O)[O-].[Na+] [SLS (10%)] | – | 26.03
